Legend:
oryza sativa L. (rice) = test: activity on agrarian species, soil treatment one day after sowing; assay type: in vivo
Summary of the method: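 Pre-emergence soil treatment of rice applied one day after sowing at 1, 3, 6, 8, 10, 12 and 14 kg/ha. Crop injury scored against untreated control on a 0–4 scale, 4 being no germination or total containment at emergence; intermediate activity recorded as both adjacent classes.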

[1] = tested on: echinocloa crus-galli R.S.; test: herbicidal activity, soil treatment one day after sowing; assay type: in vivo
zea mais L. (corn) = test: activity on agrarian species, soil treatment one day after sowing; assay type: in vivo
Summary of the method: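 Pre-emergence soil application one day after sowing at 1, 3, 6, 8, 10, 12 and 14 kg/ha. Crop damage scored visually against untreated control on a 0–4 scale (0 = no effect, 4 = no germination or total containment at emergence); intermediate effects recorded with both scores.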

rice = test: Example 2 basin test, rice-field soil, granular composition; assay type: in vivo; details: 4 - 6 - 8 kg/ha
Protocol: (§1) Into 2 sq.m. basins containing rice-field soil were sown rice and Echinocloa crus-galli. After having submerged the soil with 10 cm of water, treatments were carried out by distributing uniformly on the soil a granular composition containing 5% of PA 300 and 95% of bentonite in doses equal to 0 - 4 - 6 - 8 kg of active principle per hectar.

Echinocloa crus-galli = test: as above; assay type: in vivo; details: 4 - 6 - 8 kg/ha
Protocol: as §1

chenopodium album L. = test: herbicidal activity, soil treatment one day after sowing; assay type: in vivo
avena sativa (oats) = test: activity on agrarian species, soil treatment one day after sowing; assay type: in vivo, Avena sativa L.
artemisia vulgaris L. = test: herbicidal activity, soil treatment one day after sowing; assay type: in vivo
pisum sativum L. (pea) = test: activity on agrarian species, soil treatment one day after sowing; assay type: in vivo
[2] = tested on: triticum vulgare L. (wheat); test: as above; assay type: in vivo
Summary of the method: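 Pre-emergence soil treatment one day after sowing of wheat, product applied at 1, 3, 6, 8, 10, 12 and 14 kg/ha. Activity scored visually on a 0–4 scale relative to untreated control (0 = none, 4 = no germination/total containment); intermediate activity recorded as both values.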

[3] = tested on: amaranthus retroflexus L.; test: herbicidal activity, soil treatment one day after sowing; assay type: in vivo
vicia sativa L. = test: as above; assay type: in vivo
Summary of the method: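 Pre-emergence soil treatment one day after sowing; activity scored visually on a […] scale against untreated control, from slight difference (1) to no germination or total containment at emergence (4); intermediate activity recorded as both classes, preeminent value first.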

setaria glauca L. = test: as above; assay type: in vivo
[4] = tested on: phaseolus vulgaris (bean); test: activity on agrarian species, soil treatment one day after sowing; assay type: in vivo, Phaseolus vulgaris L.
Summary of the method: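 Product applied to soil one day after sowing at 1, 3, 6, 8, 10, 12 and 14 kg/ha. Effect on bean plants scored against control on a 0–4 scale, 4 meaning no germination or total containment at emergence; intermediate activity recorded with both values.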

[5] = toxicity towards warm-blooded animals, LD 50 per os on rat; details: in vivo, po

In the case of `CCC(C)N(C(=O)c1cc(Cl)cc(Cl)c1Cl)C(C)CC` (stereo not drawn) [PA300, 2,3,5-trichloro-N,N-di-sec.butyl-benzamide], the “activity on P, 0-4 scale” value (oryza sativa L. (rice); 3 kg/ha) is reported as 0, the “activity on P, 0-4 scale” value (oryza sativa L. (rice); 6 kg/ha) is reported as 0 and the “activity on D, 0-4 scale” value ([1]; 1 kg/ha) is reported as 3. The “activity on D, 0-4 scale” value ([1]; 2 kg/ha) was 3-4, the “activity on D, 0-4 scale” value ([1]; 4 kg/ha) was 4-3 and the “activity on D, 0-4 scale” value ([1]; 6 kg/ha) was 4. For the same molecule, the “activity on O, 0-4 scale” value (zea mais L. (corn); 3 kg/ha) was 0, the “activity on O, 0-4 scale” value (zea mais L. (corn); 6 kg/ha) was 0 and the development of rice (rice) was “the rice developed regularly”. For the same molecule, the “development of Echinocloa crus-galli plants” value (Echinocloa crus-galli) was “no Echinocloa crus-galli plant developed”, the “activity on C, 0-4 scale” value (chenopodium album L.; 1 kg/ha) was 0-1 and the “activity on C, 0-4 scale” value (chenopodium album L.; 2 kg/ha) was 1. The “activity on C, 0-4 scale” value (chenopodium album L.; 4 kg/ha) was 1-2, the “activity on C, 0-4 scale” value (chenopodium album L.; 6 kg/ha) was 1-2 and the “activity on G, 0-4 scale” value (avena sativa (oats); 3 kg/ha) was 0. The “activity on G, 0-4 scale” value (avena sativa (oats); 6 kg/ha) was 1, the “activity on B, 0-4 scale” value (artemisia vulgaris L.; 1 kg/ha) was 0-1 and the “activity on B, 0-4 scale” value (artemisia vulgaris L.; 2 kg/ha) was 1-0. The “activity on B, 0-4 scale” value (artemisia vulgaris L.; 4 kg/ha) was 1, the “activity on B, 0-4 scale” value (artemisia vulgaris L.; 6 kg/ha) was 1 and the “activity on L, 0-4 scale” value (pisum sativum L. (pea); 3 kg/ha) was 0. The “activity on L, 0-4 scale” value (pisum sativum L. (pea); 6 kg/ha) was 0, the “activity on N, 0-4 scale” value ([2]; 3 kg/ha) was 0 and the “activity on N, 0-4 scale” value ([2]; 6 kg/ha) was 0. The “activity on A, 0-4 scale” value ([3]; 1 kg/ha) was 0-1, the “activity on A, 0-4 scale” value ([3]; 2 kg/ha) was 1 and the “activity on A, 0-4 scale” value ([3]; 4 kg/ha) was 1. For the same molecule, the “activity on A, 0-4 scale” value ([3]; 6 kg/ha) was 1, the “activity on F, 0-4 scale” value (vicia sativa L.; 1 kg/ha) was 0 and the “activity on F, 0-4 scale” value (vicia sativa L.; 2 kg/ha) was 0. The “activity on F, 0-4 scale” value (vicia sativa L.; 4 kg/ha) was 0, the “activity on F, 0-4 scale” value (vicia sativa L.; 6 kg/ha) was 0 and the “activity on E, 0-4 scale” value (setaria glauca L.; 1 kg/ha) was 3-4. For the same molecule, the “activity on E, 0-4 scale” value (setaria glauca L.; 2 kg/ha) was 4-3, the “activity on E, 0-4 scale” value (setaria glauca L.; 4 kg/ha) was 4 and the “activity on E, 0-4 scale” value (setaria glauca L.; 6 kg/ha) was 4. The “activity on I, 0-4 scale” value ([4]; 3 kg/ha) was 0 and the “activity on I, 0-4 scale” value ([4]; 6 kg/ha) was 0.

In the case of `CCC(C)N(CC)C(=O)c1ccc(Cl)c(Cl)c1` (stereo not drawn) [PA631, 3,4-dichloro-N-ethyl,N-sec.butyl-benzamide], the LD50 [5] is reported as 930 mg/kg, the “activity on D, 0-4 scale” value ([1]; 6 kg/ha) is reported as 3 and the “activity on C, 0-4 scale” value (chenopodium album L.; 6 kg/ha) is reported as 3. For the same molecule, the “activity on B, 0-4 scale” value (artemisia vulgaris L.; 6 kg/ha) was 2, the “activity on A, 0-4 scale” value ([3]; 6 kg/ha) was 2 and the “activity on F, 0-4 scale” value (vicia sativa L.; 6 kg/ha) was 0-1. For the same molecule, the “activity on E, 0-4 scale” value (setaria glauca L.; 6 kg/ha) was 3.

— patent US3982931A, “N,N-di-sec.butyl-benzamide herbicides” (priority 1967, dated 1976)
